According to ChEMBL document CHEMBL4400580, “Expanded Structure-Activity Studies of Lipoxazolidinone Antibiotics” (ACS Med Chem Lett, 2019):
≈ marks a conversion by molar mass, not a printed value.

How the values were obtained:
Staphylococcus aureus [1] = test: Antimicrobial activity against methicillin-resistant Staphylococcus aureus ATCC 33591 measured after 16 hrs by broth microdilution method; assay type: functional; settings: ATCC 33591, 16 h
Staphylococcus aureus [2] = test: Antimicrobial activity against methicillin-sensitive Staphylococcus aureus ATCC 29213 measured after 16 hrs by broth microdilution method; assay type: functional; settings: ATCC 29213, 16 h
Acinetobacter baumannii = test: Antimicrobial activity against Acinetobacter baumannii ATCC 19606 measured after 16 hrs by broth microdilution method; assay type: functional; settings: ATCC 19606 = CIP 70.34 = JCM 6841, 16 h
Escherichia coli [3] = test: Antimicrobial activity against Escherichia coli SQ110 DTC measured after 16 hrs by broth microdilution method; assay type: functional
Escherichia coli [4] = test: Antimicrobial activity against Escherichia coli SQ110 measured after 16 hrs by broth microdilution method; assay type: functional; settings: SQ110, 16 h
Escherichia coli [5] = test: Antimicrobial activity against Escherichia coli SQ110 LPTD measured after 16 hrs by broth microdilution method; assay type: functional
[6] = Hemolysis in red blood cells (unknown origin) up to 40 uM; assay type: ADME, cell-based, Erythrocyte; settings: read-out: Activity
A549 = test: Cytotoxicity against human A549 cells assessed as reduction in cell viability measured after 72 hrs by ATP-liteM luciferin-luciferase assay; assay type: cell-based; settings: A549, 72 h

| SMILES | MIC (Staphylococcus aureus [1]) | MIC (Staphylococcus aureus [2]) | MIC (Acinetobacter baumannii) | MIC (Escherichia coli [3]) | MIC (Escherichia coli [4]) | MIC (Escherichia coli [5]) | hemolysis [6] | IC50 (A549) |
| --- | --- | --- | --- | --- | --- | --- | --- | --- |
| CC(C)[C@@H]1O/C(=C/C(=O)Cc2ccc(Br)cc2)NC1=O | 0.5 µg/mL (≈ 1.48 µM) | 1 µg/mL (≈ 2.96 µM) | 64 µg/mL (≈ 189 µM) |  |  |  |  |  |
| CC(C)[C@@H]1O/C(=C/C(=O)Cc2cc(F)ccc2F)NC1=O | 8 µg/mL (≈ 27.1 µM) | 16 µg/mL (≈ 54.2 µM) |  |  |  |  |  |  |
| CC(C)[C@@H]1O/C(=C/C(=O)CCc2ccc(C(F)(F)F)cc2)NC1=O | 0.5 µg/mL (≈ 1.46 µM) | 2 µg/mL (≈ 5.86 µM) |  |  |  |  |  |  |
| CC(C)[C@@H]1O/C(=C/C(=O)Cc2ccccc2Br)NC1=O | 8 µg/mL (≈ 23.7 µM) | 16 µg/mL (≈ 47.3 µM) |  |  |  |  |  |  |
| CC(C)[C@@H]1O/C(=C/C(=O)CCCCCc2ccccc2)NC1=O | 2 µg/mL (≈ 6.34 µM) | 4 µg/mL (≈ 12.7 µM) | 128 µg/mL (≈ 406 µM) |  |  |  |  |  |
| CC(C)[C@@H]1O/C(=C/C(=O)Cc2ccc(C#N)cc2)NC1=O | 4 µg/mL (≈ 14.1 µM) | 8 µg/mL (≈ 28.1 µM) |  |  |  |  |  |  |
| CC(C)[C@@H]1O/C(=C/C(=O)Cc2ccc(-c3ccccc3)cc2)NC1=O | 0.125 µg/mL (≈ 0.373 µM) | 0.25 µg/mL (≈ 0.745 µM) | > 128 µg/mL | 0.25 µg/mL (≈ 0.745 µM) | > 128 µg/mL | 32 µg/mL (≈ 95.4 µM) |  |  |
| Cc1ccc(C)c(CC(=O)/C=C2\NC(=O)[C@H](C(C)C)O2)c1 | 8 µg/mL (≈ 27.8 µM) | 16 µg/mL (≈ 55.7 µM) |  |  |  |  |  |  |
| CC(C)[C@@H]1O/C(=C/C(=O)CCc2ccc(Cl)cc2)NC1=O | 0.5 µg/mL (≈ 1.62 µM) | 2 µg/mL (≈ 6.5 µM) | 128 µg/mL (≈ 416 µM) |  |  |  |  |  |
| CC(C)[C@@H]1O/C(=C/C(=O)Cc2ccc(C(C)(C)C)cc2)NC1=O | 2 µg/mL (≈ 6.34 µM) | 4 µg/mL (≈ 12.7 µM) |  |  |  |  |  |  |
| CC(C)[C@@H]1O/C(=C/C(=O)Cc2cc(F)c(F)c(F)c2)NC1=O | 4 µg/mL (≈ 12.8 µM) | 8 µg/mL (≈ 25.5 µM) |  |  |  |  |  |  |
| CC(C)[C@@H]1O/C(=C/C(=O)Cc2ccc([N+](=O)[O-])cc2)NC1=O | 8 µg/mL (≈ 26.3 µM) | 64 µg/mL (≈ 210 µM) |  |  |  |  |  |  |
| CC(C)[C@@H]1O/C(=C/C(=O)CCc2ccc(F)cc2)NC1=O | 8 µg/mL (≈ 27.5 µM) | 16 µg/mL (≈ 54.9 µM) |  |  |  |  |  |  |
| CC(C)[C@@H]1O/C(=C/C(=O)Cc2ccc(N)cc2)NC1=O | 64 µg/mL (≈ 233 µM) | > 128 µg/mL |  |  |  |  |  |  |
| CC(C)[C@@H]1O/C(=C/C(=O)Cc2ccc(Cl)cc2)NC1=O | 0.5 µg/mL (≈ 1.7 µM) | 2 µg/mL (≈ 6.81 µM) | 64 µg/mL (≈ 218 µM) |  |  |  |  |  |
| Cc1ccc(CC(=O)/C=C2\NC(=O)[C@H](C(C)C)O2)cc1 | 2 µg/mL (≈ 7.32 µM) | 4 µg/mL (≈ 14.6 µM) | 128 µg/mL (≈ 468 µM) |  |  |  |  |  |
| COc1ccc(OC)c(CC(=O)/C=C2\NC(=O)[C@H](C(C)C)O2)c1 | 4 µg/mL (≈ 12.5 µM) | 16 µg/mL (≈ 50.1 µM) |  |  |  |  |  |  |
| CCCCCCCCCC(=O)/C=C1\NC(=O)[C@H](C(C)C)O1 |  | 0.5 µg/mL (≈ 1.69 µM) |  | 1 to 2 µg/mL (≈ 3.38 to 6.77 µM) | > 128 µg/mL | 32 µg/mL (≈ 108 µM) | < 1% | 10 µg/mL (≈ 33.8 µM) |
| CC(C)[C@@H]1O/C(=C/C(=O)CCc2ccc(Br)cc2)NC1=O | 1 µg/mL (≈ 2.84 µM) | 2 µg/mL (≈ 5.68 µM) | 128 µg/mL (≈ 363 µM) |  |  |  |  |  |
| CC(C)[C@@H]1O/C(=C/C(=O)CCc2ccccc2)NC1=O | 4 µg/mL (≈ 14.6 µM) | 8 µg/mL (≈ 29.3 µM) | 128 µg/mL (≈ 468 µM) |  |  |  |  |  |
| CC(C)[C@@H]1O/C(=C/C(=O)Cc2cccc(Br)c2)NC1=O | 2 µg/mL (≈ 5.91 µM) | 16 µg/mL (≈ 47.3 µM) |  |  |  |  |  |  |
| CC(C)[C@@H]1O/C(=C/C(=O)CCc2ccc(C(C)(C)C)cc2)NC1=O | 0.25 µg/mL (≈ 0.759 µM) | 2 µg/mL (≈ 6.07 µM) |  |  |  |  |  |  |
| Cc1ccc(CCC(=O)/C=C2\NC(=O)[C@H](C(C)C)O2)cc1 | 8 µg/mL (≈ 27.8 µM) | 16 µg/mL (≈ 55.7 µM) |  |  |  |  |  |  |
| COc1ccc(OC)c(CCC(=O)/C=C2\NC(=O)[C@H](C(C)C)O2)c1 | 8 µg/mL (≈ 24 µM) | 4 µg/mL (≈ 12 µM) | > 128 µg/mL |  |  |  |  |  |
| CC(C)[C@@H]1O/C(=C/C(=O)Cc2ccc(C(F)(F)F)cc2)NC1=O | 2 µg/mL (≈ 6.11 µM) | 4 µg/mL (≈ 12.2 µM) | 128 µg/mL (≈ 391 µM) |  |  |  |  |  |
| CC(C)[C@@H]1O/C(=C/C(=O)Cc2ccc(OC(F)(F)F)cc2)NC1=O | 0.5 µg/mL (≈ 1.46 µM) | 2 µg/mL (≈ 5.83 µM) |  | 0.06 µg/mL (≈ 0.175 µM) | > 128 µg/mL | 32 µg/mL (≈ 93.2 µM) | < 1% | 14 µg/mL (≈ 40.8 µM) |
| CC(C)[C@@H]1O/C(=C/C(=O)Cc2ccccc2)NC1=O | 2 µg/mL (≈ 7.71 µM) | 4 µg/mL (≈ 15.4 µM) |  | 2 µg/mL (≈ 7.71 µM) | > 128 µg/mL | 32 µg/mL (≈ 123 µM) |  |  |
| CC(C)[C@@H]1O/C(=C/C(=O)Cc2ccc(F)cc2)NC1=O | 2 µg/mL (≈ 7.21 µM) | 4 µg/mL (≈ 14.4 µM) |  |  |  |  |  |  |
| CC(=O)NC[C@H]1CN(c2ccc(N3CCOCC3)c(F)c2)C(=O)O1 [LINEZOLID] | 0.5 µg/mL (≈ 1.48 µM) | 1 µg/mL (≈ 2.96 µM) | 64 µg/mL (≈ 190 µM) | 2 µg/mL (≈ 5.93 µM) | > 128 µg/mL | 32 µg/mL (≈ 94.9 µM) |  |  |
